For 4 cell lines, relative viability results are on record in the supplement of paper PMC10307832.

Common to all, as to assay: relative viability (nuclei count vs DMSO), 5 days (fraction); higher = more cells survive
Compound in assay [1]: C(C(=O)C(=O)O)Br [Bromopyruvate] + Cc1nc(NC(=O)N2CCC[C@H]2C(N)=O)sc1-c1ccnc(C(C)(C)C(F)(F)F)c1 [Alpelisib] (partner 2 µM)
The essentials:
(§1)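 Medians of duplicate plates are given as relative viability. That measure is the nuclei count in treated wells divided by the count in vehicle wells. Counts were taken on 4× images of lung cancer cell lines in 1536-well plates, 5 days after pin-tool dosing the day after seeding with one drug alone or a fixed anchor-drug dose plus five library-drug doses (not always all listed) in √10 steps.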

Compound in assay [2]: C(C(=O)C(=O)O)Br [Bromopyruvate] + N=C(N)NC(=N)NCCc1ccccc1 [Phenformin] (partner 250 µM)
Summed up:
as §1

Compound in assay [3]: C(C(=O)C(=O)O)Br [Bromopyruvate] + CC(=O)Nc1cccc(-n2c(=O)n(C3CC3)c(=O)c3c(Nc4ccc(I)cc4F)n(C)c(=O)c(C)c32)c1 [Trametinib] (partner 0.02 µM)
Summed up: as §1

Compound in assay [4]: CC(O)(CS(=O)(=O)c1ccc(F)cc1)C(=O)Nc1ccc(C#N)c(C(F)(F)F)c1 [Bicalutamide] + O=C(CCCCCCC(=O)Nc1ccccc1)NO [Vorinostat] (partner 1 µM)
The essentials:
as §1

As to RERF-LC-KJ, the relative viability in assay [1] (first compound 1 µM) was determined as 0.688; in assay [1] (first compound 3.162 µM) it was 1.09; in assay [1] (first compound 10 µM) it was 0.825; in assay [1] (first compound 31.62 µM) it was 0.773; in assay [1] (first compound 100 µM) it was 0.82; in assay [2] (first compound 1 µM), 0.4. The relative viability in assay [2] (first compound 3.162 µM) was determined as 0.438; in assay [2] (first compound 10 µM) it was 0.514; in assay [2] (first compound 31.62 µM), 0.429; in assay [2] (first compound 100 µM) it was 0.416; in assay [3] (first compound 1 µM) it was 0.657; in assay [3] (first compound 3.162 µM), 0.984. For the same cell line, the relative viability in assay [3] (first compound 10 µM) amounted to 0.921; in assay [3] (first compound 31.62 µM), 0.85; in assay [3] (first compound 100 µM), 0.909; in assay [4] (first compound 0.08 µM) it was 0.779; in assay [4] (first compound 0.253 µM), 0.606; in assay [4] (first compound 0.8 µM) it was 0.864. Also, in assay [4] (first compound 2.53 µM), the relative viability amounted to 0.564.

For SK-LU-1, the relative viability in assay [1] (first compound 1 µM) turned out to be 1.09; in assay [1] (first compound 3.162 µM), 1.05; in assay [1] (first compound 10 µM) it was 0.939; in assay [1] (first compound 31.62 µM) it was 0.874; in assay [1] (first compound 100 µM) it was 0.86; in assay [2] (first compound 1 µM), 0.52. Also, the relative viability came out at 0.533 in assay [2] (first compound 3.162 µM); 0.581 in assay [2] (first compound 10 µM); 0.506 in assay [2] (first compound 31.62 µM); 0.494 in assay [2] (first compound 100 µM); 0.503 in assay [3] (first compound 1 µM); 0.469 in assay [3] (first compound 3.162 µM). Moreover, the relative viability in assay [3] (first compound 10 µM) was 0.599; in assay [3] (first compound 31.62 µM), 0.467; in assay [3] (first compound 100 µM), 0.538; in assay [4] (first compound 0.08 µM), 0.871; in assay [4] (first compound 0.253 µM) it was 0.856; in assay [4] (first compound 0.8 µM), 0.82. Moreover, in assay [4] (first compound 2.53 µM), the relative viability came out at 0.699.

On to SK-MES-1, for which the relative viability in assay [1] (first compound 1 µM) was 0.842; in assay [1] (first compound 3.162 µM), 0.878; in assay [1] (first compound 10 µM), 0.915; in assay [1] (first compound 31.62 µM) it was 0.868; in assay [1] (first compound 100 µM), 1.01; in assay [2] (first compound 1 µM), 0.653. Further, the relative viability in assay [2] (first compound 3.162 µM) turned out to be 0.651; in assay [2] (first compound 10 µM) it was 0.671; in assay [2] (first compound 31.62 µM), 0.658; in assay [2] (first compound 100 µM), 0.668; in assay [3] (first compound 1 µM), 0.631; in assay [3] (first compound 3.162 µM) it was 0.547. The relative viability in assay [3] (first compound 10 µM) was 0.511; in assay [3] (first compound 31.62 µM), 0.578; in assay [3] (first compound 100 µM), 0.574; in assay [4] (first compound 0.08 µM), 1.21; in assay [4] (first compound 0.253 µM), 1.07; in assay [4] (first compound 0.8 µM), 1.19. Besides, the relative viability in assay [4] (first compound 2.53 µM) was determined as 1.03.

For SW 1573, the relative viability in assay [1] (first compound 1 µM) came to 0.761; in assay [1] (first compound 3.162 µM), 0.84; in assay [1] (first compound 10 µM), 0.876; in assay [1] (first compound 31.62 µM), 0.678; in assay [1] (first compound 100 µM), 0.761; in assay [2] (first compound 1 µM), 0.387. Also, the relative viability in assay [2] (first compound 3.162 µM) came out at 0.446; in assay [2] (first compound 10 µM) it was 0.385; in assay [2] (first compound 31.62 µM) it was 0.34; in assay [2] (first compound 100 µM), 0.0639; in assay [3] (first compound 1 µM), 0.582; in assay [3] (first compound 3.162 µM) it was 0.576. For the same cell line, the relative viability in assay [3] (first compound 10 µM) worked out at 0.608; in assay [3] (first compound 31.62 µM), 0.432; in assay [3] (first compound 100 µM), 0.0469; in assay [4] (first compound 0.08 µM), 1.26; in assay [4] (first compound 0.253 µM) it was 0.586; in assay [4] (first compound 0.8 µM), 1.12. In addition, in assay [4] (first compound 2.53 µM), the relative viability is 0.652.
